A word on the pKd: it is the negative decadic logarithm of the Kd, by convention in mol/L. Read a high pKd as a low Kd.

The record followed here is ChEMBL document CHEMBL3813599, “Identification of small-molecule compounds targeting the dishevelled PDZ domain by virtual screening and binding studies” (Bioorg Med Chem, 2016).

Assay [1] addresses T1, Segment polarity protein dishevelled homolog DVL-1 (Homo sapiens, UniProt O14640).
T1 sequence (O14640 whole entry): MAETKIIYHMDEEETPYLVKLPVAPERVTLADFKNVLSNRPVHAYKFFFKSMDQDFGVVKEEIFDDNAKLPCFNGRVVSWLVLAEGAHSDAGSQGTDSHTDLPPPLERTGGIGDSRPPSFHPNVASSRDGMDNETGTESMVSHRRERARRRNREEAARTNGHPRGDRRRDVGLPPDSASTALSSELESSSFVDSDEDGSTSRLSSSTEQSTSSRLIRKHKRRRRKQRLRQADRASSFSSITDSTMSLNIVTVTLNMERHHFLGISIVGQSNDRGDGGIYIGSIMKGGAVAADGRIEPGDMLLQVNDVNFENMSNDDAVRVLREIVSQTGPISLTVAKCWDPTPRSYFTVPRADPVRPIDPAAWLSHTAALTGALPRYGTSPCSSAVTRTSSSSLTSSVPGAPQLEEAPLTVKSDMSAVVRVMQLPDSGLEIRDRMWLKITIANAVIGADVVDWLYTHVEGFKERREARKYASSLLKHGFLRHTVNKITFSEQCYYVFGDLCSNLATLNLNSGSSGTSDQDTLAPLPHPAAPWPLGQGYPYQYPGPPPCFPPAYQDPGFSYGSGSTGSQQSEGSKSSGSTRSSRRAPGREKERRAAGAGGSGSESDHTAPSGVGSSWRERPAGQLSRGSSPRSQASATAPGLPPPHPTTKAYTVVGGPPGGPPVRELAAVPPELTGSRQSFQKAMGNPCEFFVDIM
The experiment in a line: Binding affinity to His-tagged Dvl-1 PDZ domain (247 to 337 residues) (unknown origin) expressed in Escherichia coli BL21 (DE3) assessed as dissociation rate by SPR analysis. On the technique in general: Surface plasmon resonance follows binding to a sensor surface in real time, without labels.

In assay [2] the target is T2, Segment polarity protein dishevelled homolog DVL-1 (Homo sapiens) (UniProt O14640).
T2 sequence (whole entry): T1 sequence (O14640 whole entry)
Description: Binding affinity to His-tagged Dvl-1 PDZ domain (247 to 337 residues) (unknown origin) expressed in Escherichia coli BL21 (DE3) assessed as association rate by SPR analysis

Assay [3] deals with T1, Segment polarity protein dishevelled homolog DVL-1. The experiment in a line: Binding affinity to His-tagged Dvl-1 PDZ domain (247 to 337 residues) (unknown origin) expressed in Escherichia coli BL21 (DE3) by SPR analysis.
The target of assay [4] is T2, Segment polarity protein dishevelled homolog DVL-1 (Homo sapiens). The experiment in a line: Binding affinity to His-tagged Dvl-1 PDZ domain (247 to 337 residues) (unknown origin) expressed in Escherichia coli BL21 (DE3) assessed as chemical shift perturbations at 1:0 to 1:20 protein-compound ratio by 1H-15N-HSQC NMR analysis.
Assay [5] concerns the target T3, Segment polarity protein dishevelled homolog DVL-1 (Mus musculus, UniProt P51141).
T3 sequence (P51141 whole entry): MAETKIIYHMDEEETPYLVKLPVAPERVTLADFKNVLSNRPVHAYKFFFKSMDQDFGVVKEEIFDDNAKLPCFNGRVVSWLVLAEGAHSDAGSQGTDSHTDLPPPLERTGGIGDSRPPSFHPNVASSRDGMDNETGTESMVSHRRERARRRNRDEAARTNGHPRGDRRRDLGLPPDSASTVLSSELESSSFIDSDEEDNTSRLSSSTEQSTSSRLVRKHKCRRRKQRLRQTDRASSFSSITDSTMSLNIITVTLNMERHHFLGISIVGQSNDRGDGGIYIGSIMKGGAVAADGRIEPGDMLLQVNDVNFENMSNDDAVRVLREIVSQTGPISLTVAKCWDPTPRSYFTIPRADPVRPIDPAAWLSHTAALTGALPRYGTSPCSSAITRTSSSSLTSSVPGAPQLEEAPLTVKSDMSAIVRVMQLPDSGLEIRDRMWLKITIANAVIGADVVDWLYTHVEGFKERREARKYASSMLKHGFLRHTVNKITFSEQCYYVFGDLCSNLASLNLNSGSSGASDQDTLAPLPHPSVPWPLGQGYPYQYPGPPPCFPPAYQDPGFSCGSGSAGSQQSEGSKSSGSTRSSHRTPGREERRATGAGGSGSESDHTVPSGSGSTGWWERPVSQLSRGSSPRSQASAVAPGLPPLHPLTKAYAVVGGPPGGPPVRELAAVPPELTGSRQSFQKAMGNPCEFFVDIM
The experiment in a line: Binding affinity to TMR-linked 15N-labeled mouse Dvl-1 domain ( 247 to 341 residues) by fluorescence spectroscopy.

Each structure is given as a SMILES string. pKd: −log10 of the molar value. Activity calls are given as the source filed them. No cut-off for these calls is given here.

`O=C(O)C1CCN(C(=O)c2cc(-c3ccc(Cl)s3)nc3ccccc23)CC1`: the “Dissociation rate constant (koff)” value in assay [1] is given as 1.7 ×10¹ /s. This compound gave a Ka in assay [2] of 5.47 ×10⁴ /M/s. Moreover, the pKd in assay [3] was 3.51.
Regarding `COC(=O)CN1C(=O)S/C(=C/c2ccc(-c3cccc(C(=O)O)c3C)o2)C1=O`, the Ka in assay [2] came out at 4.68 ×10⁶ /M/s. Besides, the negative-log Kd (pKd) in assay [3] was 3.60.
Consider `O=C(O)Cc1coc2cc(OS(=O)(=O)c3ccc(Cl)cc3F)ccc12`, for which the “Dissociation rate constant (koff)” value in assay [1] was 1.45 s⁻¹. In assay [2], the Ka stood at 1.04 ×10⁴ /M/s. In assay [3], the pKd is 3.86.
`COc1cc(/C=C2\Sc3ccccc3C2=O)ccc1OCC(=O)O`: in assay [4], the outcome was Active. Further, the “Dissociation rate constant (koff)” value in assay [1] was found to be 6.22 ×10⁻¹ /s. In addition, in assay [2], the Ka worked out at 2.32 ×10³ /M/s. In assay [3], this compound gave a negative logarithm of the Kd (pKd) of 3.57.
`CCCN1C(=O)/C(=C/c2ccc(OCC(=O)O)c(Cl)c2)NC1=S`: in assay [1], the “Dissociation rate constant (koff)” value is 3.81 ×10⁻¹ /s. In addition, in assay [2], the Ka turned out to be 2.5 ×10³ /M/s. Moreover, in assay [3], the pKd is 3.82.
As for `COC(=O)COc1ccc(/C=C2\Sc3ccccc3C2=O)cc1`, the “Dissociation rate constant (koff)” value in assay [1] amounted to 2.51 s⁻¹. Also, the Ka in assay [2] turned out to be 3.2 ×10³ /M/s. Besides, the pKd in assay [3] was 3.11.
`CC(C)[C@H](OC(=O)[C@H](C)NC(=O)[C@@H](OC(=O)[C@H](C)NC(=O)OC(C)(C)C)C(C)C)C(=O)O`: in assay [5], the pKd was 3.63.
